Test results published in PubChem BioAssay AID330 (DTP/NCI, 2004).
Where “and” joins values, the source holds several entries; their conditions need not be identical. Equal entries are not always repeated. Toxic doses and inconclusive results are not listed.

System: P388 leukemia ip, CD2F1 mice, survival T/C
Experiment: NCI In Vivo Anticancer Drug Screen. Data for tumor model P388 Leukemia (intraperitoneal) in CD2F1 (CDF1) mice
Conditions: endpoint: median survival time, higher = longer survival
Outline: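 Mice carrying the transplanted tumor received test compound or vehicle. Survival was recorded in each group, and the value is the treated-group measurement divided by that of the vehicle-treated control group.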

[1] = dose: 50.0 mg/kg/injection, schedule: Q01DX005 (ip), vehicle: saline with Tween-80
[2] = dose: 100.0 mg/kg/injection, schedule: Q01DX005 (ip), vehicle: saline with Tween-80
[3] = dose: 200.0 mg/kg/injection, schedule: Q01DX005 (ip), vehicle: saline with Tween-80
[4] = dose: 12.5 mg/kg/injection, schedule: Q01DX009 (ip), vehicle: saline with Tween-80
[5] = dose: 25.0 mg/kg/injection, schedule: Q01DX009 (ip), vehicle: saline with Tween-80
[6] = dose: 50.0 mg/kg/injection, schedule: Q01DX009 (ip), vehicle: saline with Tween-80

CC1(O)C=CC(=O)C=C1
T/C (dose: 1.56 mg/kg/injection, schedule: Q01DX009 (ip), vehicle: distilled water + Tween-80): 103 % of control | T/C (dose: 3.13 mg/kg/injection, schedule: Q01DX009 (ip), vehicle: distilled water + Tween-80): 102 % of control | T/C (dose: 6.25 mg/kg/injection, schedule: Q01DX009 (ip), vehicle: distilled water + Tween-80): 109 % of control | T/C (dose: 12.5 mg/kg/injection, schedule: Q01DX009 (ip), vehicle: distilled water + Tween-80): 109 % of control

NCCCN=c1ccc2c3c1c(O)c1c(O)ccc(=O)c1c3[nH]n2CCNCCO
T/C (dose: 3.12 mg/kg/injection, schedule: Q04DX002 (ip), vehicle: saline): 165 % of control | T/C (dose: 3.12 mg/kg/injection, schedule: Q04DX002 (ip), vehicle: water): 165 % of control | T/C (dose: 6.25 mg/kg/injection, schedule: Q04DX002 (ip), vehicle: saline): 165 % of control | T/C (dose: 6.25 mg/kg/injection, schedule: Q04DX002 (ip), vehicle: water): 172 % of control | T/C (dose: 9.72 mg/kg/injection, schedule: Q04DX002 (ip), vehicle: water): 196 % of control | T/C (dose: 12.5 mg/kg/injection, schedule: Q04DX002 (ip), vehicle: saline): 190 % of control | T/C (dose: 12.5 mg/kg/injection, schedule: Q04DX002 (ip), vehicle: water): 177 % of control | T/C (dose: 16.2 mg/kg/injection, schedule: Q04DX002 (ip), vehicle: water): 199 % of control | T/C (dose: 17.0 mg/kg/injection, schedule: Q01DX001 (ip), vehicle: water): 268 % of control | T/C (dose: 25.0 mg/kg/injection, schedule: Q04DX002 (ip), vehicle: saline): 207 % of control | T/C (dose: 25.0 mg/kg/injection, schedule: Q04DX002 (ip), vehicle: water): 250 % of control | T/C (dose: 27.0 mg/kg/injection, schedule: Q04DX002 (ip), vehicle: water): 245 % of control | T/C (dose: 45.0 mg/kg/injection, schedule: Q04DX002 (ip), vehicle: water): 323 % of control | T/C (dose: 50.0 mg/kg/injection, schedule: Q04DX002 (ip), vehicle: saline): 254 % of control | T/C (dose: 50.0 mg/kg/injection, schedule: Q04DX002 (ip), vehicle: water): 272 % of control

O=C(CCCCCCCCCCC(=O)NO)NO
T/C (dose: 60.0 mg/kg/injection, schedule: Q01DX005 (ip), vehicle: saline with Tween-80): 105 % of control | T/C (dose: 120.0 mg/kg/injection, schedule: Q01DX005 (ip), vehicle: saline with Tween-80): 106 % of control | T/C (dose: 240.0 mg/kg/injection, schedule: Q01DX005 (ip), vehicle: saline with Tween-80): 110 % of control

COC(=O)NCCn1c([N+](=O)[O-])cnc1C
T/C (dose: 100.0 mg/kg/injection, schedule: Q01DX001 (ip), vehicle: saline with Tween-80): 99 % of control | T/C (dose: 200.0 mg/kg/injection, schedule: Q01DX001 (ip), vehicle: saline with Tween-80): 98 % of control | T/C (dose: 400.0 mg/kg/injection, schedule: Q01DX001 (ip), vehicle: saline with Tween-80): 106 % of control

CCC1C=Cc2ccccc2NC1 (configuration not stated)
T/C [1]: 100 % of control | T/C [2]: 94 % of control | T/C [3]: 98 % of control

COC(=O)/C=C(\C)Oc1c(Cl)c(Cl)c(Cl)c(Cl)c1Cl
T/C (dose: 50.0 mg/kg/injection, schedule: Q04DX003 (ip), vehicle: saline sonified): 110 % of control | T/C (dose: 100.0 mg/kg/injection, schedule: Q01DX009 (ip), vehicle: saline with Tween-80): 91 % of control | T/C (dose: 100.0 mg/kg/injection, schedule: Q04DX003 (ip), vehicle: saline sonified): 110 % of control | T/C (dose: 200.0 mg/kg/injection, schedule: Q01DX009 (ip), vehicle: saline with Tween-80): 100 % of control | T/C (dose: 200.0 mg/kg/injection, schedule: Q04DX003 (ip), vehicle: saline sonified): 110 % of control | T/C (dose: 400.0 mg/kg/injection, schedule: Q01DX009 (ip), vehicle: saline with Tween-80): 91 % of control

C/C=C(\C)C(=O)OC1C(C)=C2C(C1OC(=O)CCCC)C(C)(OC(C)=O)CC(OC(=O)CCCC)C1(O)C2OC(=O)C1(C)O (configuration not stated)
T/C (dose: 0.37 mg/kg/injection, schedule: Q01DX009 (ip), vehicle: Klucel (hydroxypropylcellulose) (HPC)): 92 % of control | T/C (dose: 0.75 mg/kg/injection, schedule: Q01DX009 (ip), vehicle: Klucel (hydroxypropylcellulose) (HPC)): 101 % of control | T/C (dose: 1.5 mg/kg/injection, schedule: Q01DX009 (ip), vehicle: Klucel (hydroxypropylcellulose) (HPC)): 100 % of control | T/C (dose: 3.0 mg/kg/injection, schedule: Q01DX009 (ip), vehicle: Klucel (hydroxypropylcellulose) (HPC)): 100 % of control

O=[N+]([O-])c1ccc(C2=C[P+](c3ccccc3)(c3ccccc3)c3ccccc3O2)cc1
T/C (dose: 0.78 mg/kg/injection, schedule: Q01DX005 (ip), vehicle: Klucel (hydroxypropylcellulose) (HPC)): 106 % of control | T/C (dose: 1.56 mg/kg/injection, schedule: Q01DX005 (ip), vehicle: Klucel (hydroxypropylcellulose) (HPC)): 115 % of control | T/C (dose: 3.12 mg/kg/injection, schedule: Q01DX005 (ip), vehicle: Klucel (hydroxypropylcellulose) (HPC)): 117 % of control | T/C (dose: 6.25 mg/kg/injection, schedule: Q01DX005 (ip), vehicle: Klucel (hydroxypropylcellulose) (HPC)): 112 % of control

Cc1c(C2Nc3ccccc3C2C)[nH]c2ccccc12 (configuration not stated)
T/C [1]: 104 % of control | T/C [2]: 100 % of control | T/C [3]: 103 % of control

O=C(O)c1c[nH]c2cc([N+](=O)[O-])ccc2c1=O
T/C [4]: 94 % of control | T/C [5]: 88 % of control | T/C [6]: 87 % of control | T/C (dose: 50.0 mg/kg/injection, schedule: Q01DX009 (ip), vehicle: saline): 104 % of control

COC(=O)c1cc(-c2cccnc2)[nH]c(=O)c1C#N
T/C (dose: 60.0 mg/kg/injection, schedule: Q01DX005 (ip), vehicle: saline): 104 % of control | T/C (dose: 120.0 mg/kg/injection, schedule: Q01DX005 (ip), vehicle: saline): 100 % of control

CC(C)(C)OC(=O)NCC(=O)NC(CSC(c1ccccc1)c1ccccc1)C(=O)NCC(=O)O (configuration not stated)
T/C (dose: 50.0 mg/kg/injection, schedule: Q01DX005 (ip), vehicle: Klucel (hydroxypropylcellulose) (HPC)): 105 % of control | T/C (dose: 100.0 mg/kg/injection, schedule: Q01DX005 (ip), vehicle: Klucel (hydroxypropylcellulose) (HPC)): 99 % of control

O=C(O)C1CSCN1 (configuration not stated)
T/C (dose: 6.25 mg/kg/injection, schedule: Q01DX009 (ip), vehicle: water): 90 % of control and 96 % of control | T/C (dose: 12.5 mg/kg/injection, schedule: Q01DX009 (ip), vehicle: water): 99 % of control and 96 % of control | T/C (dose: 25.0 mg/kg/injection, schedule: Q01DX009 (ip), vehicle: water): 98 % of control and 99 % of control | T/C (dose: 50.0 mg/kg/injection, schedule: Q01DX009 (ip), vehicle: water): 98 % of control and 95 % of control | T/C (dose: 100.0 mg/kg/injection, schedule: Q01DX009 (ip), vehicle: water): 100 % of control | T/C (dose: 200.0 mg/kg/injection, schedule: Q01DX009 (ip), vehicle: water): 96 % of control

O=C1CCNC(=O)N1OS(=O)(=O)c1ccccc1
T/C (dose: 50.0 mg/kg/injection, schedule: Q01DX009 (ip), vehicle: Klucel (hydroxypropylcellulose) (HPC)): 86 % of control

O=C(O)c1cc2cccc(OCc3ccc(Cl)cc3Cl)c2cc1O
T/C (dose: 100.0 mg/kg/injection, schedule: Q04DX002 (ip), vehicle: Klucel (hydroxypropylcellulose) (HPC)): 115 % of control | T/C (dose: 200.0 mg/kg/injection, schedule: Q04DX002 (ip), vehicle: Klucel (hydroxypropylcellulose) (HPC)): 106 % of control | T/C (dose: 400.0 mg/kg/injection, schedule: Q04DX002 (ip), vehicle: Klucel (hydroxypropylcellulose) (HPC)): 103 % of control

O=C1NC2C(=CC(O)C(O)C2O)c2cc3c(cc21)OCO3 (configuration not stated)
T/C (dose: 3.12 mg/kg/injection, schedule: Q01DX009 (ip), vehicle: saline + alcohol): 102 % of control | T/C (dose: 6.25 mg/kg/injection, schedule: Q01DX005 (ip), vehicle: saline + alcohol): 111 % of control | T/C (dose: 6.25 mg/kg/injection, schedule: Q01DX009 (ip), vehicle: saline + alcohol): 102 % of control | T/C (dose: 12.5 mg/kg/injection, schedule: Q01DX005 (ip), vehicle: saline + alcohol): 111 % of control | T/C (dose: 25.0 mg/kg/injection, schedule: Q01DX005 (ip), vehicle: saline + alcohol): 105 % of control | T/C (dose: 25.0 mg/kg/injection, schedule: Q01DX009 (ip), vehicle: saline + alcohol): 101 % of control | T/C (dose: 50.0 mg/kg/injection, schedule: Q01DX005 (ip), vehicle: saline + alcohol): 105 % of control

Cn1c(C(=O)O)cc(=O)cc1C(=O)O
T/C (dose: 6.25 mg/kg/injection, schedule: Q01DX009 (ip), vehicle: saline with Tween-80): 100 % of control | T/C [4]: 101 % of control | T/C [5]: 95 % of control | T/C [6]: 100 % of control

CC(C)=CCC/C(C)=C/COc1cc(O)c2c(c1)C(=O)c1cc(C)cc(O)c1C2=O
T/C (dose: 5.0 mg/kg/injection, schedule: Q01DX009 (ip), vehicle: DMSO): 100 % of control | T/C (dose: 10.0 mg/kg/injection, schedule: Q01DX009 (ip), vehicle: DMSO): 97 % of control | T/C (dose: 20.0 mg/kg/injection, schedule: Q01DX009 (ip), vehicle: DMSO): 97 % of control
